# Assays:
# KB = test: Cytotoxicity against human KB cells; conditions: read-out: ED50
# P388 = test: Cytotoxicity against mouse P388 cells; conditions: P388, read-out: ED50
smiles,measurement,setting,value
Oc1ccc(O)cc1 [HYDROQUINONE],EC50,KB,3.8 mg/L
same,EC50,P388,2.2 mg/L

# — ChEMBL document CHEMBL1151612, “Potential anticancer agents XXXII. Hydroquinone from Ipomopsis aggregata” (1984)
